Data as given in patent publication US20140349340A1, “MBTH-LIKE PROTEINS IN THE PRODUCTION OF SEMI SYNTHETIC ANTIBIOTICS” (DSM SINOCHEM PHARMACEUTICALS NETHERLANDS B.V., priority 2012, published 2014).

Tests used:
Format in all cases: biochemical
[1] = PPi release assay, adenylation activity with D-phenylglycine; conditions: for adenylation activity (PPi release assay): substrate D-phenylglycine, co-purified with Tcp13, or Tcp17 or VMbtH; for Formed PPi: substrate D-PG 1 mM
From the text: (§1) These assays use inorganic pyrophosphatases to convert PPi produced during aminoacyl-AMP formation to orthophosphate (Pi). To measure Pi concentrations some of these assays use molybdate/malachite green reagent for colorimetric detection (McQuade et al. 2008) or, as used in the context of the present invention, a shift in absorbance maximum by conversion of 7-methyl-6-thioguanosine (MESG) by purine nucleoside phosphorylase (Ehmann D. E. et al. (Proc. Natl. Acad. Sci. (2000) 97, 2509-2514) or Daniel & Aldrich (Anal. Biochem. (2010) 404, 56-63)).
(§2) To determine the adenylation activity of the adenylation domains, the Enzchek® pyrophosphate assay kit (Life Technologies) was used as described by Ehmann D. E. et al. (Proc Nat Acad Science (2000) 97, 2509-2514) with small modifications. The reactions were performed 96 wells UV/Vis transparent plates (BD Falcon). The reaction mixture comprises 50 mM HEPES pH 8.0, 10 mM MgCl2, 5 mM ATP, 75 mM DTT, 0.03 U Inorganic Pyrophosphatase (IP), 1 U Purine Nucleoside Phosphorylase (PNP) and 0.2 mM MESG in a volume of 70 μl. Next 20 μl (around 0.5-2 μM final concentration) of purified A(T) domain, with or without co-purification of the MbtH like helper protein was added and the reaction was pre-incubated for 15 minutes at RT to reduce contaminating Pi. Following the pre-incubation, 10 μl of a 10 mM or 1 mM solution of the appropriate amino acid depending on the performed specificity determination was added to initiate the adenylation reaction and the absorbance at 360 nm was measured using a TECAN I Control spectrophotometer. Absorbance measurements were made every 5 to 10 min over a period of up to 240 min. A reaction with addition of 10 μl MilliQ water instead was used to determine and subtract the background absorbance. As substrates the following amino acids were used: D- or L-phenylalanine, D- or L-hydroxyphenylglycine, D- or L-phenylglycine, L-tryptophan, L-valine, L-cysteine, and L-leucine.

[2] = PPi release assay, adenylation activity with D-phenylalanine; conditions: substrate D-phenylalanine; for adenylation activity (PPi release assay): co-purified with Tcp13, or Tcp17 or VMbtH
From the text: as §1, §2

[3] = PPi release assay, adenylation activity with L-phenylglycine; conditions: for adenylation activity (PPi release assay): substrate L-phenylglycine, co-purified with Tcp13, or Tcp17 or VMbtH; for Formed PPi: substrate L-PG 1 mM
From the text: as §1, §2

[4] = PPi release assay, adenylation activity with L-hydroxyphenylglycine; conditions: for adenylation activity (PPi release assay) / adenylation activity (absorption 360 nm, PPi release assay): substrate L-hydroxyphenylglycine
From the text: as §1, §2

[5] = PPi release assay, adenylation activity with L-phenylalanine; conditions: substrate L-phenylalanine; for adenylation activity (PPi release assay): co-purified with Tcp13, or Tcp17 or VMbtH
From the text: as §1, §2

[6] = PPi release assay, adenylation activity with D-hydroxyphenylglycine; conditions: for adenylation activity (PPi release assay) / adenylation activity (absorption 360 nm, PPi release assay): substrate D-hydroxyphenylglycine
From the text: as §1, §2

[7] = protein alone, without MbtH-like protein
[8] = co-purified with Tcp13, or Tcp17 or VMbtH
[9] = co-purified with MbtH-like protein CMbtH
[10] = co-purified with MbtH-like protein VMbtH
[11] = co-purified with MbtH-like protein Tcp 13
[12] = co-purified with MbtH-like protein Tcp 17
[13] = co-purified with MbtH-like protein Tcp13
[14] = substrate L-HPG 0.1 mM, co-purified with MbtH-like protein Tcp 13
[15] = substrate L-HPG 0.1 mM, co-purified with MbtH-like protein Tcp 17
[16] = substrate L-HPG 0.1 mM, co-purified with MbtH-like protein VMbtH
[17] = substrate L-HPG 1 mM, co-purified with MbtH-like protein Tcp 13
[18] = substrate L-HPG 1 mM, co-purified with MbtH-like protein Tcp 17
[19] = substrate L-HPG 1 mM, co-purified with MbtH-like protein VMbtH
[20] = substrate D-HPG 0.1 mM, co-purified with MbtH-like protein Tcp 13
[21] = substrate D-HPG 0.1 mM, co-purified with MbtH-like protein Tcp 17
[22] = substrate D-HPG 0.1 mM, co-purified with MbtH-like protein VMbtH
[23] = substrate D-HPG 1 mM, co-purified with MbtH-like protein Tcp 13
[24] = substrate D-HPG 1 mM, co-purified with MbtH-like protein Tcp 17
[25] = substrate D-HPG 1 mM, co-purified with MbtH-like protein VMbtH

BpsB_M1_A: purified adenylation domain of BpsB module M1 (SEQ ID NO: 26); Amycolatopsis balhimycina
adenylation activity (PPi release assay) [1]: no adenylation activity
adenylation activity (PPi release assay) [2]: no adenylation activity
adenylation activity (absorption 360 nm, PPi release assay) [2, 7]: No adenylation activity
adenylation activity (PPi release assay) [3]: no adenylation activity
adenylation activity (PPi release assay) ([4]; co-purified with MbtH-like protein BMbtH): confirmed its activity
adenylation activity (PPi release assay) [4, 8]: no adenylation activity
adenylation activity (absorption 360 nm, PPi release assay) [4, 7]: No adenylation activity
adenylation activity (PPi release assay) [5]: no adenylation activity
adenylation activity (absorption 360 nm, PPi release assay) [5, 7]: No adenylation activity
adenylation activity (PPi release assay) [6, 8]: no adenylation activity
adenylation activity (absorption 360 nm, PPi release assay) [6, 7]: No adenylation activity

ComB_M1_A: purified adenylation domain of ComB module M1 (SEQ ID NO: 9); Streptomyces lavendulae
adenylation activity (PPi release assay) [1]: no adenylation activity
adenylation activity (PPi release assay) [2]: no adenylation activity
adenylation activity (absorption 360 nm, PPi release assay) [2, 7]: No adenylation activity
adenylation activity (PPi release assay) [3]: no adenylation activity
adenylation activity (PPi release assay) [4, 9]: confirmed its activity
adenylation activity (PPi release assay) [4, 8]: no adenylation activity
adenylation activity (absorption 360 nm, PPi release assay) [4, 7]: No adenylation activity
adenylation activity (PPi release assay) [5]: no adenylation activity
adenylation activity (absorption 360 nm, PPi release assay) [5, 7]: No adenylation activity
adenylation activity (PPi release assay) [6, 9]: confirmed its activity
adenylation activity (PPi release assay) [6, 8]: no adenylation activity
adenylation activity (absorption 360 nm, PPi release assay) [6, 7]: No adenylation activity

Dbv25_M1_A: purified adenylation domain of Dbv25 module M1 (SEQ ID NO: 2); Nonomuraea sp. ATCC 39727
adenylation activity (absorption 360 nm, PPi release assay) [2, 10]: no activity
adenylation activity (absorption 360 nm, PPi release assay) [2, 7]: No adenylation activity
adenylation activity (absorption 360 nm, PPi release assay) [4, 10]: clear adenylation activity
adenylation activity (absorption 360 nm, PPi release assay) [4, 7]: No adenylation activity
adenylation activity (absorption 360 nm, PPi release assay) [5, 10]: no activity
adenylation activity (absorption 360 nm, PPi release assay) [5, 7]: No adenylation activity
adenylation activity (absorption 360 nm, PPi release assay) [6, 10]: clear adenylation activity
adenylation activity (absorption 360 nm, PPi release assay) [6, 7]: No adenylation activity

StaA_M1_A: purified adenylation domain of StaA module M1 (SEQ ID NO: 3); Streptomyces toyocaensis
adenylation activity (absorption 360 nm, PPi release assay) [2, 10]: no activity
adenylation activity (absorption 360 nm, PPi release assay) [2, 7]: No adenylation activity
adenylation activity (absorption 360 nm, PPi release assay) [4, 10]: clear adenylation activity
adenylation activity (absorption 360 nm, PPi release assay) [4, 7]: No adenylation activity
adenylation activity (absorption 360 nm, PPi release assay) [5, 10]: no activity
adenylation activity (absorption 360 nm, PPi release assay) [5, 7]: No adenylation activity
adenylation activity (absorption 360 nm, PPi release assay) [6, 10]: clear adenylation activity
adenylation activity (absorption 360 nm, PPi release assay) [6, 7]: No adenylation activity

Tcp9_M1_AT: purified adenylation thiolation didomain of Tcp9 (SEQ ID NO: 1 plus adjacent thiolation domain), MBP fusion, His-tag
Formed PPi [1, 11]: 0.05 mM/min/mM enzyme
Formed PPi [1, 12]: 0.05 mM/min/mM enzyme
Formed PPi [1, 10]: 0.07 mM/min/mM enzyme
adenylation activity (absorption 360 nm, PPi release assay) [2, 13]: no activity
adenylation activity (absorption 360 nm, PPi release assay) [2, 7]: No adenylation activity
Formed PPi [3, 11]: 1.32 mM/min/mM enzyme
Formed PPi [3, 12]: 1.44 mM/min/mM enzyme
Formed PPi [3, 10]: 2.32 mM/min/mM enzyme
Formed PPi [4, 14]: 1.18 mM/min/mM enzyme
Formed PPi [4, 15]: 1.20 mM/min/mM enzyme
Formed PPi [4, 16]: 1.23 mM/min/mM enzyme
Formed PPi [4, 17]: 1.16 mM/min/mM enzyme
Formed PPi [4, 18]: 1.34 mM/min/mM enzyme
Formed PPi [4, 19]: 1.40 mM/min/mM enzyme
adenylation activity (absorption 360 nm, PPi release assay) [4, 13]: clear adenylation activity
adenylation activity (absorption 360 nm, PPi release assay) [4, 7]: No adenylation activity
adenylation activity (absorption 360 nm, PPi release assay) [5, 13]: no activity
adenylation activity (absorption 360 nm, PPi release assay) [5, 7]: No adenylation activity
Formed PPi [6, 20]: 2.07 mM/min/mM enzyme
Formed PPi [6, 21]: 1.71 mM/min/mM enzyme
Formed PPi [6, 22]: 3.72 mM/min/mM enzyme
Formed PPi [6, 23]: 5.28 mM/min/mM enzyme
Formed PPi [6, 24]: 4.63 mM/min/mM enzyme
Formed PPi [6, 25]: 8.44 mM/min/mM enzyme
adenylation activity (absorption 360 nm, PPi release assay) [6, 13]: clear adenylation activity
adenylation activity (absorption 360 nm, PPi release assay) [6, 7]: No adenylation activity

Tcp11_M1_A: purified adenylation domain of Tcp11 module M1 (SEQ ID NO: 7), maltose binding protein fusion, His-tag; Actinoplanes teichomyceticus
Formed PPi [1, 11]: 0 mM/min/mM enzyme
Formed PPi [1, 12]: 0.04 mM/min/mM enzyme
Formed PPi [1, 10]: 0 mM/min/mM enzyme
adenylation activity (absorption 360 nm, PPi release assay) [2, 13]: no activity
adenylation activity (absorption 360 nm, PPi release assay) [2, 7]: No adenylation activity
Formed PPi [3, 11]: 0.17 mM/min/mM enzyme
Formed PPi [3, 12]: 0.23 mM/min/mM enzyme
Formed PPi [3, 10]: 0.09 mM/min/mM enzyme
Formed PPi [4, 14]: 0.80 mM/min/mM enzyme
Formed PPi [4, 15]: 0.95 mM/min/mM enzyme
Formed PPi [4, 16]: 1.38 mM/min/mM enzyme
Formed PPi [4, 17]: 1.03 mM/min/mM enzyme
Formed PPi [4, 18]: 1.04 mM/min/mM enzyme
Formed PPi [4, 19]: 1.54 mM/min/mM enzyme
adenylation activity (absorption 360 nm, PPi release assay) [4, 13]: clear adenylation activity
adenylation activity (absorption 360 nm, PPi release assay) [4, 7]: No adenylation activity
adenylation activity (absorption 360 nm, PPi release assay) [5, 13]: no activity
adenylation activity (absorption 360 nm, PPi release assay) [5, 7]: No adenylation activity
Formed PPi [6, 20]: 0.08 mM/min/mM enzyme
Formed PPi [6, 21]: 0.11 mM/min/mM enzyme
Formed PPi [6, 22]: 0 mM/min/mM enzyme
Formed PPi [6, 23]: 0.66 mM/min/mM enzyme
Formed PPi [6, 24]: 0.63 mM/min/mM enzyme
Formed PPi [6, 25]: 0.86 mM/min/mM enzyme
adenylation activity (absorption 360 nm, PPi release assay) [6, 13]: clear adenylation activity
adenylation activity (absorption 360 nm, PPi release assay) [6, 7]: No adenylation activity
